In one assay the test system is HCV genotype 1b replicon. Kind of assay: HCV replicon luciferase reporter assay, genotype 1b (LE_1b). Type of assay: cell-based. The conditions noted are these: Hepatitis C virus, 72 h, HUH-7 cells, genotype 1b (Con1) replicon, 3 days incubation, Renilla luciferase. The source says: An HCV replicon whole cell system was established as described by Lohmann V, Korner F, Koch J, Herian U, Theilmann L, Bartenschlager R., Science 285(5424):110-3 (1999) and modified to introduce a luciferase reporter, as first described by Krieger et al (Krieger N, Lohmann V, and Bartenschlager R, J. Virol. 75(10):4614-4624 (2001)). cDNA encoding a humanized form of the Renilla luciferase gene and a linker sequence fused directly to the 3′-end of the luciferase gene were introduced into the replicon construct using an Asc1 restriction site located in core, directly upstream of the neomycin marker gene. The adaptive mutation at position 1179 (serine to isoleucine) was also introduced (Blight K J, Kolykhalov, A A, Rice, C M, Science 290(5498):1972-1974). A stable cell line constitutively expressing this HCV replicon construct was generated by first linearizing plasmid DNAs with ScaI. RNA transcripts were synthesized in vitro using the T7 MegaScript transcription kit (Ambion, Austin, Tex.) according to manufacturer's directions. In vitro transcripts of the cDNA were transfected into the human hepatoma cell line, HUH-7. […] Resulting cell lines were characterized for positive and negative strand RNA production and protein production over time. […]
(§1) HCV replicon luciferase assays were developed to monitor the inhibitory effects of compounds described in the disclosure on HCV genotypes 1a and 1b viral replication. HUH-7 cells, constitutively expressing the HCV replicon, were grown in Dulbecco's Modified Eagle Media (DMEM) (Gibco-BRL) containing 10% Fetal calf serum (FCS) (Sigma) and 1 mg/mL G418 (Gibco-BRL). Compounds were serially diluted 3 folds in DMSO for a twenty-point titration and subsequently transferred to sterile 384-well tissue-culture treated plates (Corning cat #3571). The plates were then seeded with 50 μL of cells at a density of 3.0×10^3 cells/well in DMEM containing 4% FCS (final DMSO concentration at 0.5%). After 3 days incubation at 37° C., cells were analyzed for Renilla Luciferase activity using the EnduRen as substrate (Promega cat #E6485). The EnduRen substrate was diluted in DMEM and then added to the plates to a final concentration of 7.5 μM. The plates were incubated for 2 hrs at 37° C. and then read immediately for 30 seconds with Viewlux Imager (PerkinElmer) using a luminescence program. To assess cytotoxicity of compounds, CC50 values were generated by multiplexing the EnduRen-containing plates with Cell Titer-Blue (Promega, cat #G8082). Cell-Titer Blue (3 μL) was added to each well and incubated for 8 hrs at 37° C. The fluorescence signal from each well was read, with an excitation wavelength at 525/10 nm and an emission wavelength of 598/10 nm, using the Viewlux Imager.
(§2) The EC50 values for compounds were calculated by using a four-parameter logistic equation: y=A+((B−A)/(1+((C/x)^D))), where A and B denotes minimal and maximal % inhibition, respectively, C is the EC50, D is the hill slope and x represents compound concentration.
(In general: A replicon is a self-replicating genome or part of one, used to study replication in cells.)

The test system of the next assay is HCV genotype 1a replicon. Kind of assay: HCV replicon luciferase reporter assay, genotype 1a (LE_1a). Type of assay: cell-based. The conditions noted are these: Hepatitis C virus, 72 h, HUH-7 cells, genotype 1a H77 replicon, 3 days incubation, Renilla luciferase.
From the text: An HCV replicon whole cell system was established as described by Lohmann V, Korner F, Koch J, Herian U, Theilmann L, Bartenschlager R., Science 285(5424):110-3 (1999) and modified to introduce a luciferase reporter, as first described by Krieger et al (Krieger N, Lohmann V, and Bartenschlager R, J. Virol. 75(10):4614-4624 (2001)). cDNA encoding a humanized form of the Renilla luciferase gene and a linker sequence fused directly to the 3′-end of the luciferase gene were introduced into the replicon construct using an Asc1 restriction site located in core, directly upstream of the neomycin marker gene. The adaptive mutation at position 1179 (serine to isoleucine) was also introduced (Blight K J, Kolykhalov, A A, Rice, C M, Science 290(5498):1972-1974). A stable cell line constitutively expressing this HCV replicon construct was generated by first linearizing plasmid DNAs with ScaI. RNA transcripts were synthesized in vitro using the T7 MegaScript transcription kit (Ambion, Austin, Tex.) according to manufacturer's directions. In vitro transcripts of the cDNA were transfected into the human hepatoma cell line, HUH-7. […] Resulting cell lines were characterized for positive and negative strand RNA production and protein production over time.
A stable HCV replicon luciferase reporter cell line representing the genotype 1a H77 strain (Yanagi M, Purcell R H, Emerson S U, et al. Transcripts from a single full-length cDNA clone of hepatitis C virus are infectious when directly transfected into the liver of a chimpanzee. Proc Natl Acad Sci USA 1997; 94(16):8738-8743) was generated as described previously for the genotype 1b(Con1) replicon luciferase cell line. The replicon construct was modified by introducing mutations were introduced into the genes encoding the NS3 helicase domain (proline replaced by leucine at position 1496) and NS5A (serine to isoleucine at position 2204) to improve replication in cell culture.
as §1, §2

Structures are written as SMILES. Where two headings read alike, the source gives them in different places.

Our source for the EC50 values is patent US9643999B2 (Bristol-Myers Squibb Company, priority 2012, dated 2017).

As a reminder, the EC50 is the concentration at which the effect is half-maximal.

For `COc1ccc2c(O[C@@H]3C[C@H]4C(=O)N[C@]5(C(=O)NS(=O)(=O)C6(C)CC6)C[C@H]5/C=C\CC[C@@H](C)C[C@@H](C)[C@H](NC(=O)OC(C)(C)C(F)(F)F)C(=O)N4C3)cc(-n3ccc(C(C)C)n3)nc2c1` [Compound 4299], the EC50 with HCV genotype 1b replicon (read-out: LE_1b (EC50, range)) lay within 0.51 to 1 nM; in the assay with HCV genotype 1a replicon (read-out: LE_1a (EC50, range)), 0.51 to 1 nM.

As for `CC[C@@H]1C[C@H](C)CC/C=C\[C@@H]2C[C@@]2(C(=O)NS(=O)(=O)C2(C)CC2)NC(=O)[C@@H]2C[C@@H](Oc3ncc(-c4nc(C(C)(C)C)cs4)c4cc(OC)ccc34)CN2C(=O)[C@H]1NC(=O)OC(C)(C)C` [Compound 4274, tert-butyl((2R,6S,7R,9R,13aS,14aR,16aS,Z)-2-((4-(4-(tert-butyl)thiazol-2-yl)-6-methoxyisoquinolin-1-yl)oxy)-7-ethyl-9-methyl-14a-(((1-methylcyclopropyl)sulfonyl)carbamoyl)-5,16-dioxo-1,2,3,5,6,7,8,9,10,11,13a,14,14a,15,16,16a-hexadecahydrocyclopropa[e]pyrrolo[1,2-a][1,4]diazacyclopentadecin-6-yl)carbamate], the EC50 with HCV genotype 1b replicon (read-out: LE_1b (EC50, range)) lay within 1.01 to 5 nM; in the assay on HCV genotype 1a replicon (read-out: LE_1a (EC50, range)), 5.01 to 35 nM.

With `C[C@@H]1CC/C=C\[C@@H]2C[C@@]2(C(=O)NS(=O)(=O)C2(C)CC2)NC(=O)[C@@H]2C[C@@H](Oc3nc4nccn4c4ccccc34)CN2C(=O)[C@@H](NC(=O)OC(C)(C)C)[C@H](C)C1` [Compound 6122, tert-butyl((2R,6S,7R,9R,13aS,14aR,16aS,Z)-2-(imidazo[1,2-a]quinazolin-5-yloxy)-7,9-dimethyl-14a-(((1-methylcyclopropyl)sulfonyl)carbamoyl)-5,16-dioxo-1,2,3,5,6,7,8,9,10,11,13a,14,14a,15,16,16a-hexadecahydrocyclopropa[e]pyrrolo[1,2-a][1,4]diazacyclopentadecin-6-yl)carbamate], the half-maximal effective concentration (EC50) with HCV genotype 1b replicon (read-out: LE_1b (EC50)) was 72.5 nM; with HCV genotype 1b replicon (read-out: LE_1b (EC50, range)) it was 35 to 145 nM; in the assay with HCV genotype 1a replicon (read-out: LE_1a (EC50)) it was 72 nM; in the assay with HCV genotype 1a replicon (read-out: LE_1a (EC50, range)) it was 35 to 145 nM.

Regarding `CC[C@@H]1C[C@H](C)CC/C=C\[C@@H]2C[C@@]2(C(=O)NS(=O)(=O)C2(C)CC2)NC(=O)[C@@H]2C[C@@H](Oc3nc4cc(-c5ncc(C)o5)ccc4nc3C(F)(F)F)CN2C(=O)[C@H]1NC(=O)OC(C)(C)C(F)(F)F` [Compound 7003], the EC50 in the assay with HCV genotype 1b replicon (read-out: LE_1b (EC50)) is 0.8 nM; in the assay on HCV genotype 1b replicon (read-out: LE_1b (EC50, range)) it was 0.51 to 1 nM; in the assay with HCV genotype 1a replicon (read-out: LE_1a (EC50)), 3.7 nM; in the assay on HCV genotype 1a replicon (read-out: LE_1a (EC50, range)), 1.01 to 5 nM.

Regarding `CC[C@@H]1C[C@H](C)CC/C=C\[C@@H]2C[C@@]2(C(=O)NS(=O)(=O)C2CC2)NC(=O)[C@@H]2C[C@@H](Oc3nc4ncccc4nc3C(F)(F)F)CN2C(=O)[C@H]1NC(=O)OC(C)(C)C` [Compound 4330, tert-butyl((2R,6S,7R,9R,13aS,14aR,16aS,Z)-14a-((cyclopropylsulfonyl)carbamoyl)-7-ethyl-9-methyl-5,16-dioxo-2-((2-(trifluoromethyl)pyrido[2,3-b]pyrazin-3-yl)oxy)-1,2,3,5,6,7,8,9,10,11,13a,14,14a,15,16,16a-hexadecahydrocyclopropa[e]pyrrolo[1,2-a][1,4]diazacyclopentadecin-6-yl)carbamate], the EC50 lay within 5.01 to 35 nM in the assay on HCV genotype 1b replicon (read-out: LE_1b (EC50, range)) and 5.01 to 35 nM in the assay with HCV genotype 1a replicon (read-out: LE_1a (EC50, range)).

Consider `[2H]C([2H])([2H])C1(S(=O)(=O)NC(=O)[C@@]23C[C@H]2/C=C\CC[C@@H](C)C[C@@H](CC)[C@H](NC(=O)OC(C)(C)C)C(=O)N2C[C@H](Oc4nccc5cc(OC)c(F)cc45)C[C@H]2C(=O)N3)CC1` [Compound 5507], for which the EC50 with HCV genotype 1b replicon (read-out: LE_1b (EC50, range)) is 0.51 to 1 nM; in the assay with HCV genotype 1a replicon (read-out: LE_1a (EC50, range)), 1.01 to 5 nM.

As to `Cc1cn2c(n1)nc(O[C@@H]1C[C@H]3C(=O)N[C@]4(C(=O)NS(=O)(=O)C5(C)CC5)C[C@H]4/C=C\CC[C@@H](C)C[C@@H](C)[C@H](NC(=O)OC(C)(C)C(F)(F)F)C(=O)N3C1)c1cc(Cl)ccc12` [Compound 6135], the EC50 in the assay with HCV genotype 1b replicon (read-out: LE_1b (EC50, range)) was 0.51 to 1 nM; with HCV genotype 1a replicon (read-out: LE_1a (EC50, range)) it was 1.01 to 5 nM.

As for `Cc1cn2c(n1)nc(O[C@@H]1C[C@H]3C(=O)N[C@]4(C(=O)NS(=O)(=O)C5(CF)CC5)C[C@H]4/C=C\CC[C@@H](C)C[C@@H](C)[C@H](NC(=O)OC(C)(C)C(C)(F)F)C(=O)N3C1)c1cc(Cl)ccc12` [Compound 6141], the EC50 in the assay with HCV genotype 1b replicon (read-out: LE_1b (EC50, range)) was 1.01 to 5 nM; with HCV genotype 1a replicon (read-out: LE_1a (EC50, range)), 5.01 to 35 nM.

Turning to `C[C@@H]1CC/C=C\[C@@H]2C[C@@]2(C(=O)NS(=O)(=O)C2(CF)CC2)NC(=O)[C@@H]2C[C@@H](Oc3nc4nccn4c4ccc(Cl)cc34)CN2C(=O)[C@@H](NC(=O)OC(C)(C)C(F)(F)F)[C@H](C)C1` [Compound 6131], the EC50 in the assay with HCV genotype 1b replicon (read-out: LE_1b (EC50, range)) was 1.01 to 5 nM; in the assay on HCV genotype 1a replicon (read-out: LE_1a (EC50, range)), 5.01 to 35 nM.

Regarding `Cc1cnc(-c2ccc3nc(C(F)(F)F)c(O[C@@H]4C[C@H]5C(=O)N[C@]6(C(=O)NS(=O)(=O)C7(C)CC7)C[C@H]6/C=C\CC[C@@H](C)C[C@@H](C)[C@H](NC(=O)OC(C)(C)C(F)(F)F)C(=O)N5C4)nc3c2)o1` [Compound 7002], the EC50 was 0.51 to 1 nM with HCV genotype 1b replicon (read-out: LE_1b (EC50, range)) and 1.01 to 5 nM in the assay on HCV genotype 1a replicon (read-out: LE_1a (EC50, range)).

`CC[C@@H]1C[C@H](C)CC/C=C\[C@@H]2C[C@@]2(C(=O)NS(=O)(=O)C2CC2)NC(=O)[C@@H]2C[C@@H](Oc3nc4cc(OC)ccc4nc3C3CC3)CN2C(=O)[C@H]1NC(=O)OC(C)(C)C(F)(F)F` [Compound 4309]: the EC50 with HCV genotype 1b replicon (read-out: LE_1b (EC50)) was 2.31 nM; with HCV genotype 1b replicon (read-out: LE_1b (EC50, range)) it was 1.01 to 5 nM; in the assay on HCV genotype 1a replicon (read-out: LE_1a (EC50)), 3.51 nM; in the assay with HCV genotype 1a replicon (read-out: LE_1a (EC50, range)), 1.01 to 5 nM.

With `C[C@@H]1CC/C=C\[C@@H]2C[C@@]2(C(=O)NS(=O)(=O)C2(C)CC2)NC(=O)[C@@H]2C[C@@H](Oc3nccc4c5c(ccc34)CCO5)CN2C(=O)[C@@H](NC(=O)OC(C)(C)C(C)(F)F)[C@H](C)C1` [Compound 5495], the EC50 in the assay on HCV genotype 1b replicon (read-out: LE_1b (EC50, range)) fell in the range of 0.51 to 1 nM; in the assay with HCV genotype 1a replicon (read-out: LE_1a (EC50, range)) it was 1.01 to 5 nM.

`CC[C@@H]1C[C@H](C)CC/C=C\[C@@H]2C[C@@]2(C(=O)NS(=O)(=O)C2(C)CC2)NC(=O)[C@@H]2C[C@@H](Oc3ncc(-c4cnco4)c4cc(OC)ccc34)CN2C(=O)[C@H]1NC(=O)OC(C)(C)C(F)(F)F` [Compound 4291]: the concentration for a half-maximal effect (EC50) with HCV genotype 1b replicon (read-out: LE_1b (EC50, range)) was in the range of 0.51 to 1 nM; with HCV genotype 1a replicon (read-out: LE_1a (EC50, range)), 1.01 to 5 nM.

As to `CC[C@@H]1C[C@H](C)CC/C=C\[C@@H]2C[C@@]2(C(=O)NS(=O)(=O)C2CC2)NC(=O)[C@@H]2C[C@@H](Oc3ncc(-c4cnco4)c4cc(OC)ccc34)CN2C(=O)[C@H]1NC(=O)OC(C)(C)C(F)(F)F` [Compound 4293], the EC50 in the assay on HCV genotype 1b replicon (read-out: LE_1b (EC50, range)) lay in the range of 0.51 to 1 nM; in the assay on HCV genotype 1a replicon (read-out: LE_1a (EC50, range)), 1.01 to 5 nM.
